# Assay results from patent US20250122193A1, “NOVEL PYRIDOCARBAZOLIUM COMPOUNDS AND MEDICAL USES THEREOF” (MyCural Therapeutics, priority 2021, published 2025).
# Key:
# [1] = tested on: NCI-60 human tumor cell lines; assay: NCI-60 GI50 response versus MYC level
# Description: “Responsive” and “less responsive”; cell lines with positive and negative log 10 GI50 values, respectively. “Higher MYC” and “lower MYC”; cell lines with higher and lower MYC expression levels (MYC mRNA/protein) than average, respectively.
# To investigate whether the levels of MYC expression in tumor cells correlate with growth inhibitory response to MYCMI-7, we utilized GI50 and mRNA expression data from the NCI-60 diverse human tumor cell line panel available for MYCMI-7 by the Developmental Therapeutics Program of the U.S. National Cancer Institute (DTP-NCI). […] The cell lines were categorized as “responsive” or “less responsive” to MYCMI-7 based on average logarithmic GI50 values, as well as the categories “higher MYC” and “lower MYC” based on higher or lower than average MYC mRNA and/or high protein levels.
# cyclin E = cyclin E protein expression; format: cell-based
# Description: For western blot equal amounts of proteins ([…]) were separated on a 4-12% SDS-PAGE gel. Proteins were transferred to Immobilion-P membrane (Millipore) and detected by immunostaining and chemoluminescence (Immobilion western HRP substrate; Millipore). For immunoprecipitations 500-1000 μg of protein was used. […] Briefly, cells were crosslinked with 1% formaldehyde on ice for 6 minutes. Nuclear chromatin was sonicated on ice to fragments from 0.3 kb to 0.5 kb. Nuclear chromatin equivalent to 2.5×10^7 cells was immunoprecipitated with 2 μg antibody.
# MYCN:MAX interaction = target: T1, MYCN:MAX interaction (Homo sapiens, UniProt P04198); assay: split Gaussia luciferase (GLuc) assay, MYCN:MAX; format: cell-based; conditions: 5 μM, HeLa cells
# T1 construct: replacing the existing Zip-gene (GCN4) with full length MYC, MYCN or MAX cDNA; expressed in transfected cells; host or cells: HeLa
# T1 sequence (P04198 1-464): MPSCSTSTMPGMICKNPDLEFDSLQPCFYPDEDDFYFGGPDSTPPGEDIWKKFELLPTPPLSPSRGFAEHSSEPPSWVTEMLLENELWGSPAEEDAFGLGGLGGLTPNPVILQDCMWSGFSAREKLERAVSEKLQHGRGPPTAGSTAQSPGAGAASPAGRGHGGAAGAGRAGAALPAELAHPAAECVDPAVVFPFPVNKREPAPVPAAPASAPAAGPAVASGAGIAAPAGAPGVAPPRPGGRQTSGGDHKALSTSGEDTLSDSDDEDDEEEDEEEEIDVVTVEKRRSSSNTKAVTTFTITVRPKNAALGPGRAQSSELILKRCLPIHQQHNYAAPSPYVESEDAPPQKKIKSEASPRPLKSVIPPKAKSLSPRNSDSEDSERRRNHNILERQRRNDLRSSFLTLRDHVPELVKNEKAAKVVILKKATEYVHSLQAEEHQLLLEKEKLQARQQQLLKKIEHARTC
# Description: A) Molecular structure of MYCMI-7. B-E) split Gaussia luciferase (GLuc) assay. MYC or MYCN and MAX Gluc constructs were co-transfected into HeLa cells together with a firefly luciferase vector. 24 hours post transfection cells were treated with compounds, and after another 17-24 hours cells were harvested and both GLuc and firefly luciferase activities were measured. The mean of three different experiments is shown. Treatment with: B) 5 μM of MYCMI-7, 64 μM 10058-F4 or 5 μM JQ1, respectively, C) 6.5 μM MYCMI-7 on cells expressing MYC:MAX GLuc vs. GCN4:GCN4 GLuc, D) 5 μM MYCMI-7 and 5 μM ellipticine. E) 5 μM MYCMI-7 for various time points. F) in situ proximity ligation assay (isPLA). […] MYC:GAL4 was used as negative control in the isPLA assay. G) Quantification of isPLA dots. (H) Co-immunoprecipitation (co-IP) of endogenous MYC and MAX proteins from MCF7 cells after treatment with 5 μM MYCMI-7 at various times. IP=immunoprecipitation; W=western blot. I) Chromatin immunoprecipitation (ChIP) of MYC at the ODC1 target gene promoter after treatment of cells with 5 μM MYCMI-7 for 6 hours. J) MYC target gene ODC1 expression after treatment with 5 μM MYCMI-7, quantified by qPCR. […] L) Recombinant MYC bHLHZip protein domain immobilized onto a CM5 chip was subjected to various concentrations of MYCMI-7 and the complex of MYCbHLHZip-MYCMI-7 was measured as response units by SPR. […]
# 0.2-0.4 μg of each GLuc-construct together with 0.05 μg pCMV-LUC (firefly luciferase) were used per transfection in 12 well plates. […] After 60 min incubation at room temperature 20 μM D-luciferin was added (substrate of Firefly luciferase) and luminescence was measured in a Lumat LB9501 (Berthold) or OmegaFluostar (BMG Labtech) luminometer. Directly after, Gaussia luciferase substrate Coelenterazine (Promega) was added to a final concentration of 20 μM in a mixture with “Stop n' Glow” (Promega) and the luciferase activity was measured. The ratio between Gaussia and Firefly luciferase values were calculated and normalized to DMSO-treated control cells.
# MYC protein turnover = target: T2, MYC protein turnover (Homo sapiens, UniProt P01106); assay: cycloheximide (CHX) chase of MYC; format: cell-based; conditions: wt HCT116 cells, 5 μM
# T2 construct: Endogenous MYC was immunoprecipitated and detected by western blot analysis; endogenous in cells; host or cells: MCF7, HeLa, P493-6, HCT116 (WT, FBW7-/-, p53-/-)
# Description: FIG. 2: MYCMI-7 downregulates MYC and MYCN protein expresión. A) Steady state levels of MYC protein in MCF7 cells after 17 hours exposure to indicated concentrations MYCMI-7 or ellipticine B) MYC mRNA expression in MCF7 cells after treatment with MYCMI-7 for various time points. C) Steady state levels of MYC protein in different HCT116 cell lines (WT, FBW7−/− or p53−/−) after 17 hours exposure to 5 μM MYCMI-7. Endogenous MYC was immunoprecipitated and detected by western blot analysis. D) Cycloheximide (CHX) chase in HCT116 cells. Cells were subjected to 5 μM MYCMI-7 30 min prior cycloheximide addition. Cells were harvested after the indicated time points, MYC was immunoprecipitated using N262 antibody and the MYC levels analyzed using western blot (C33 antibody). E) CHX chase after MYCMI-7 treatment performed as in (D) using Fbxw7-deficient HCT116 cells. F) Stable expression of wt, T58A or S62A MYC in HO15.19 MYC−/− cells. The cells were treated with 5 μM MYCMI-7 overnight, and MYC expression was analyzed by western blot. G) Cartoon showing a linear structural representation of wt MYC and indicated mutants. […]
# For western blot equal amounts of proteins ([…]) were separated on a 4-12% SDS-PAGE gel. Proteins were transferred to Immobilion-P membrane (Millipore) and detected by immunostaining and chemoluminescence (Immobilion western HRP substrate; Millipore). […]
# T2 sequence (P01106 16-454): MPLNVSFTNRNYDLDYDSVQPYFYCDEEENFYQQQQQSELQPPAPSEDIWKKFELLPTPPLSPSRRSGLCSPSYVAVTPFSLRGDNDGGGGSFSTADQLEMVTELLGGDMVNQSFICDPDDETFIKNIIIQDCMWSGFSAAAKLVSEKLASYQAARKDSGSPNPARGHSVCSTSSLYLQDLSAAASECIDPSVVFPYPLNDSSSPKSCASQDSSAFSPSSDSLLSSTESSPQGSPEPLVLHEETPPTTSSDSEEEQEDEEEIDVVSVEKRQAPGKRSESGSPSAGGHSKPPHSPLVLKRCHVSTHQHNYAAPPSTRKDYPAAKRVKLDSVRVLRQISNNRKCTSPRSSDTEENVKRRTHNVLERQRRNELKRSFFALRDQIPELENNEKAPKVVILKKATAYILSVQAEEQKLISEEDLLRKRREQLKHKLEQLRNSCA
smiles,measurement,setting,value
"CCN(CC)CC[n+]1ccc2c(C)c3[nH]c4ccccc4c3c(C)c2c1 [MYCMI-7, 2-(5,11-Dimethyl-6H-25-pyrido[4,3-b]carbazol-2-yl)-N,N-diethylethanamine bromide]",correlation between response and MYC mRNA/protein levels,[1]; 60 tumor cell lines,significant correlation
same,cells with high MYC mRNA/protein level responsive to MYCMI-7,"[1]; NCI-60, GI50 data of DTP-NCI",79%
same,cells with low MYC levels less responsive,"[1]; NCI-60, GI50 data of DTP-NCI",63%
same,protein expression of cyclin E,cyclin E,unaffected
same,inhibition of MYCN:MAX GLuc interaction,MYCN:MAX interaction,inhibited
same,turnover rate of MYC (CHX chase),MYC protein turnover,increased
